# Assay results: US9095136B2, “2-IODO imidazole-derivatives” (BAYER INTELLECTUAL PROPERTY GMBH, priority 2011, dated 2015)
# Several values for one entry are separate records, joined by “and”; a condition that tells them apart may be missing. Equal values may be shown once.
# Columns and labels:
# Alternaria solani = test: Example A: Alternaria test (tomato)/protective; format: in vivo; details: protective, 500 ppm, evaluation 7 days after inoculation
# Protocol: Solvent: 49 parts by weight of N,N-dimethylformamide Emulsifier: 1 part by weight of alkylaryl polyglycol ether To produce a suitable preparation of active compound, 1 part by weight of active compound is mixed with the stated amounts of solvent and emulsifier, and the concentrate is diluted with water to the desired concentration. […] The plants then remain at 96% rel. atmospheric humidity and a temperature of 20° C.
# Pyricularia oryzae = format: in vivo; details: rice, protective, 500 ppm, evaluation 7 days after inoculation
# Uromyces appendiculatus [1] = test: Example E: Uromyces test (bean)/protective; format: in vivo; details: protective, 10 ppm, evaluation 10 days after inoculation
# Protocol: (§1) Solvents: 24.5 parts by weight of acetone • 24.5 parts by weight of dimethylacetamide Emulsifier: 1 part by weight of alkylaryl polyglycol ether To produce a suitable preparation of active compound, 1 part by weight of active compound is mixed with the stated amounts of solvent and emulsifier, and the concentrate is diluted with water to the desired concentration. To test for protective activity, young plants are sprayed with the preparation of active compound at the stated application rate. […] The plants are then placed in a greenhouse at about 21° C. and a relative atmospheric humidity of about 90%.
# Leptosphaeria nodorum = test: Example H: Leptosphaeria nodorum test (wheat)/protective; format: in vivo; details: protective, 500 ppm, evaluation 8 days after inoculation
# Protocol: (§2) Solvent: 49 parts by weight of N,N-dimethylacetamide Emulsifier: 1 part by weight of alkylaryl polyglycol ether To produce a suitable preparation of active compound, 1 part by weight of active compound is mixed with the stated amounts of solvent and emulsifier, and the concentrate is diluted with water to the desired concentration. To test for protective activity, young plants are sprayed with the preparation of active compound at the stated application rate. After the spray coating has dried on, the plants are sprayed with a spore suspension of Leptosphaeria nodorum.
# Septoria tritici [2] = test: Example I: Septoria tritici test (wheat)/protective; format: in vivo; details: protective, 500 ppm, evaluation 21 days after inoculation
# Protocol: as §2, with “Septoria tritici.” for “Leptosphaeria nodorum.”
# Septoria tritici [3] = test: Example U: preventative in vivo test with Septoria tritici (leaf blotch disease on wheat); details: 500 ppm, evaluation 21 to 28 days after inoculation
# Protocol: The active compounds tested are prepared by homogenization in a mixture of acetone/Tween/DMSO and then diluted with water to the desired active compound concentration. Wheat plants (cultivar “Scipion”), sown in a 50/50 peat/pozzolana soil substrate and cultivated at 22° C. (12 h)/20° C. (12 h), are treated at the 1-leaf stage (height 10 cm) by spraying with the active compound, prepared as above. As a control, plants are treated with the mixture of acetone/Tween/DMSO/water without the active compound. After 24 hours, the plants are inoculated by spraying the leaves with an aqueous suspension of cryogenically preserved Septoria tritici spores.
# Sphaerotheca fuliginea = test: Example V: preventative in vivo test with Sphaerotheca fuliginea (powdery mildew on cucumber); details: 500 ppm, evaluation 12 days after inoculation
# Protocol: The active compounds tested are prepared by homogenization in a mixture of acetone/Tween/DMSO and then diluted with water to the desired active compound concentration. Cucumber plants (cultivar “Vert petit de Paris”), sown in a 50/50 peat/pozzolana soil substrate and cultivated at 24° C., are treated at the Z11 cotyledon stage by spraying with the active compound, prepared as above. As a control, plants are treated with the mixture of acetone/Tween/DMSO/water without the active compound. After 24 hours, the plants are inoculated by spraying the leaves with an aqueous suspension of Sphaerotheca fuliginea spores. The inoculated cucumber plants are incubated at about 20° C./25° C. and a relative atmospheric humidity of 60/70%.
# Uromyces appendiculatus [4] = test: Example W: preventative in vivo test with Uromyces appendiculatus (bean rust); details: 500 ppm, evaluation 10 days after inoculation
# Protocol: The active compounds tested are prepared by homogenization in a mixture of acetone/Tween/DMSO and then diluted with water to the desired active compound concentration. Bean plants (cultivar “Saxa”), sown in a 50/50 peat/pozzolana soil substrate and cultivated at 24° C., are treated at the 2-leaf stage (height 9 cm) by spraying with the active compound, prepared as above. As a control, plants are treated with the mixture of acetone/Tween/DMSO/water without the active compound. After 24 hours, the plants are inoculated by spraying the leaves with an aqueous suspension of Uromyces appendiculatus spores.
# Uromyces appendiculatus [5] = test: Example Y: Uromyces test (beans)/protective, comparison; format: in vivo; details: protective, application rate 10 ppm, evaluation 10 days after inoculation
# Protocol: as §1
# Septoria tritici [6] = test: Example Z: Septoria tritici test (wheat)/protective, comparison; format: in vivo; details: protective, application rate 250 ppm, evaluation 21 days after inoculation
# Protocol: as §2, with “active compound or active compound combination is mixed” for “active compound is mixed”, “active compound or active compound combination at the” for “active compound at the”, “suspension of Septoria tritici.” for “suspension of Leptosphaeria nodorum.”
compound,measurement,setting,value
"OC(Cc1ccccc1Cl)(Cn1ccnc1I)C1(Cl)CC1 (stereo not shown) [Example 1, 2-(1-chlorocyclopropyl)-1-(2-chlorophenyl)-3-(2-iodo-1H-imidazol-1-yl)propan-2-ol]",Eff. %,Alternaria solani,88%
same,Eff. %,Pyricularia oryzae,95%
same,Eff. %,Uromyces appendiculatus [1],100% and 88%
same,Eff. %,Leptosphaeria nodorum,100%
same,Eff. %,Septoria tritici [2],100%
same,Efficacy %,Septoria tritici [3],100%
same,Efficacy %,Sphaerotheca fuliginea,100%
same,Efficacy %,Uromyces appendiculatus [4],100%
same,Efficacy in %,Uromyces appendiculatus [5],100%
same,Efficacy in %,Septoria tritici [6],86%
